According to patent publication US11332470B2, “CXCR4 inhibitors and uses thereof” (X4 Pharmaceuticals, Inc., priority 2016, dated 2022):
pIC50: −log10 of the molar value.

Key:
in vitro = conditions: human, Caco-2, pH 7.4
Procedure, shortened: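 Compound at 10 μM in HBSS pH 7.4 dosed A-to-B and B-to-A across Caco-2 monolayers, 90 min at 37 °C, duplicates. Monolayer integrity by TEER and lucifer yellow (5 μM, fluorescence 485/535 nm); compound quantified by LC-MS/MS.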

CXCR4 (U87.CXCR4 cells) = biological target: T1, CXCR4 (U87.CXCR4 cells) (Homo sapiens, UniProt P61073); assay: Intracellular CXCL-12-induced calcium mobilization assay (FLIPR); format: cell-based; conditions: CXCL-12 25-50 ng/mL, read-out: IC50 CXCL-12 Ca2+ flux U87.CXCR4+
T1 construct: expressed in transfected cells; host or cells: U87 (U87.CXCR4)
T1 sequence (P61073 whole entry): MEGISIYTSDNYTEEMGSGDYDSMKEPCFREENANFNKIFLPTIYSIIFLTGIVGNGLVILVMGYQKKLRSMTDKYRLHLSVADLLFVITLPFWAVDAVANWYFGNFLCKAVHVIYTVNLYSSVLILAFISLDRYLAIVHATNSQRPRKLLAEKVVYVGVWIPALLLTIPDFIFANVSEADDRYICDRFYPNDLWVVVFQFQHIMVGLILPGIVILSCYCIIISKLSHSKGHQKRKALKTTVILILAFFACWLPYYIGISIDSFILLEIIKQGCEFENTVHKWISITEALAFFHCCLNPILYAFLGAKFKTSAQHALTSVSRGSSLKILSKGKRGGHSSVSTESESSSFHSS
Procedure, shortened: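 U87.CXCR4 cells were loaded with 4 μM Fluo-2 AM for 45 min at 37 °C in HBSS/20 mM HEPES/0.2% BSA, pH 7.4. Calcium flux induced by CXCL-12 (25-50 ng/mL) was monitored kinetically by FLIPR fluorescence at 37 °C.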

[1] = Fraction of drug unbound to brain proteins; format: in vitro ADME, Mouse; conditions: read-out: Fu (b) % (fraction of drug unbound to brain proteins)
[2] = Fraction of drug unbound to plasma proteins; format: in vitro ADME, Mouse; conditions: read-out: Fu (p) % (fraction of drug unbound to plasma proteins)

Compound | Papp A→B at 90 min, 10 μM (in vitro) [×10⁻⁶ cm/s] | Papp B→A at 90 min, 10 μM (in vitro) [×10⁻⁶ cm/s] | efflux ratio at 90 min, 10 μM (in vitro) | pIC50 (CXCR4 (U87.CXCR4 cells)) | fraction unbound ([1]; Table 9, mouse) | fraction unbound ([2]; Table 9, mouse) | fraction unbound ([1]; Table 10, mouse) | fraction unbound ([2]; Table 10, mouse)
CN1CCN(c2cccc3[nH]c(CN4CCCC4c4ncccc4Cl)nc23)CC1 (stereo not drawn) [Compound I-26] | 10 to 30 | 10 to 30 | 0.1 to 10 | 6.00 to 7.00 | 0.076 | 0.127 | – | –
Cc1cccnc1C1CCCN1Cc1cn2c(N3CCN(C)C4(CC4)C3)cccc2n1 (stereo not drawn) [Compound I-29] | 10 to 30 | 10 to 30 | 0.1 to 10 | 6.00 to 7.00 | – | – | 0.063 | 0.455
Cc1cccnc1C1CCCN1Cc1nc2cccc(N3CCN(C4CC4)CC3)c2[nH]1 (stereo not drawn) [Compound I-31] | 10 to 30 | 10 to 30 | 0.1 to 10 | 6.00 to 7.00 | – | – | 0.008 | 0.05
CN1CCN(c2c(CN3CCCC3c3ccccn3)nc3ccccn23)CC1 (stereo not drawn) [Compound I-41] | 10 to 30 | 10 to 30 | 0.1 to 10 | 7.00 to 11.00 | 0.069 | 0.239 | – | –
CN1CCN(c2c(CN3CCCC3c3ccccn3)nc3ccc(F)cn23)CC1 (stereo not drawn) [Compound I-63] | 10 to 30 | 10 to 30 | 0.1 to 10 | 7.00 to 11.00 | 0.053 | 0.133 | – | –
CN1CCN(c2c(CN3CCCC3c3nccs3)nc3ccccn23)CC1 (stereo not drawn) [Compound I-70] | 10 to 30 | 10 to 30 | 0.1 to 10 | 7.00 to 11.00 | 0.207 | 0.148 | – | –
